Results on 10 molecules are retold here after US7452701B2, “Methods for the preparation of β-amino acids” (Wisconsin Alumni Research Foundation, priority 1998, dated 2008).

Entries after “also recorded” stand apart in the source; their conditions may differ.

For data set [1], the target named is T1, Clostridium subterminale SB4 lysine-2,3-aminomutase (Clostridium subterminale, UniProt Q9XBQ8).
T1 construct: made in house; host or cells: E. coli BL21(DE3) with pET-23a(+) (lysine 2,3-aminomutase gene) and pAlter-Ex2 (dnaY gene)
Nature of the data set: EPR spectroscopy of lysine 2,3-aminomutase and coenzymes mixed with L-α-amino acids. The following applies: amino acid in place of L-lysine, frozen, EPR at 77 K. It is filed as biochemical. As for the experimental part:
FIG. 3 is electron paramagnetic resonance (EPR) spectroscopy of Clostridium subterminale SB4 lysine-2,3-aminomutase in the presence of L-lysine (1), L-aspartate (2), L-glutamate (3), or no substrate (4). Reductively incubated recombinant-produced purified lysine-2,3-aminomutase (18) (75 μM-hexamer) was quickly mixed at 24° C. and frozen (total time<15 sec) at −150° C. with the following components: A) Tris(hydroxymethyl)aminomethane sulfate (Tris-sulfate) 240 mM pH 8.0; B) S-(5′-adenosyl)-L-methionine 1.4 mM; C) sodium hydrosulfite 2.0 mM; D) L-lysine, L-aspartate, or L-glutamate 120 mM. Concentrations listed are final concentrations after mixing. Following freezing, samples were evaluated at 77° K by EPR using a Varian model E3 spectrometer with the following settings: Field center—3250 Gauss; Scan width—200 Gauss; Microwave frequency—9.1 GHz; Microwave power—5 milli Watts; Modulation frequency—100 kHz; Modulation amplitude—1.6 Gauss; Time constant—0.3 sec.; Scan time—240 sec; Gain—125,000.
FIG. 4 is electron paramagnetic resonance (EPR) spectroscopy of Clostridium subterminale SB4 lysine-2,3-aminomutase in the presence of L-alanine (2), L-alanine+ethylamine (3) L-alanine+propylamine (4), L-lysine (5) and no substrate (1). Conditions as given in FIG. 3 except L-lysine or L-alanine 120 mM; ± ethylamine or propylamine each 0.19 M or no substrate (5).
FIG. 5 is electron paramagnetic resonance spectroscopy of Clostridium subterminale SB4 lysine-2,3-aminomutase in the presence of L-lysine (1), L-homoserine (2), DL-homocysteine (3), or L-methionine (4). Reductively incubated recombinant-produced purified lysine-2.3-aminomutase (18) (51.4 μM-hexamer) was quickly mixed at 24° C. and frozen (total time<15 sec) at −150° C. with the following components: A) Tris(hydroxymethyl)aminomethane sulfate (Tris-sulfate) 185 mM pH 8.0; B) S-(5′-adenosyl)-L-methionine 1.1 mM; C) sodium hydrosulfite 1.5 mM; D) L-lysine 92 mM, L-homoserine 92 mM, or DL-homocysteine 92 mM, or L-methionine 65 mM. Concentrations listed are final concentrations after mixing. Following freezing, samples were evaluated at 77° K by EPR using a Varian model E3 spectrometer with the following settings: Field center—3250 Gauss; Scan width—200 Gauss; Microwave frequency—9.1 GHz; Microwave power—5 milli Watts; Modulation frequency—100 kHz; Modulation amplitude—1.6 Gauss; Time constant—0.3 sec.; Scan time—240 sec; Gain—250,000. FIG. 4B. 4.6×enlargement of (2), (3), and (4) of FIG. 4A.
Although lysine 2,3-aminomutase is selective for L-lysine as its substrate, it also catalyzes the 2,3-aminomutation of other L-α-amino acids. A simple and definitive assay for such reaction is the EPR spectrum of a mixture of lysine 2,3-aminomutase with its coenzymes and an L-α-amino acid.
The spectral envelope is determined by five structural features in the substrate: 1) the L-configuration at the optically active carbon-2, shown as Cα in FIG. 1A; 2) a hydrogen atom bonded to Cα; 3) a carboxyl group bonded to Cα; 4) a nitrogen atom bonded to Cβ; and 5) a hydrogen atom bonded to Cβ. […] The conformation of the radical is determined by the dihedral angles relating the axis of the π-radical orbital to the bonds Cα—H, Cβ—H, and Cβ—N, and these angles determine the nuclear hyperfine splitting in the spectrum and, thereby, the shape of the spectral envelope.

For data set [2], the target named is T1, Clostridium subterminale SB4 lysine-2,3-aminomutase. Kind of data set: Conversion of L-alanine to β-alanine by lysine 2,3-aminomutase, HPLC of PITC derivatives. It is filed as biochemical. To be noted: for effect of amine on generation of β-alanine from L-alanine: amine 0.2 M, L-alanine 0.38 M, 90 min at 37° C. On the procedure:
FIG. 6 is time course of the appearance of the HPLC peak of β-alanine by Clostridium subterminale SB4 lysine 2,3-aminomutase. Reductively incubated recombinant-produced purified lysine-2,3-aminomutase (18) (10 μM-hexamer) was mixed with the following components: A) N-[2-hydroxyethyl-piperazine-N′-[3-propanesulfonic acid] (EPPS) 36 mM pH 8.0, Na salt; B) S-(5′-adenosyl)-L-methionine 390 μM; C) sodium hydrosulfite 3.6 mM; D) L-alanine 380 mM; E) ethylamine 0.20 M pH 8.0. At various time intervals at 37° C., 60 μl of reaction mix was added to 20 μl of 2 N perchloric acid to stop the reaction. Samples were centrifuged at 14,000×g for 10 mm. The supernatants were treated with phenylisothiocyanate (PITC) according to the method of Heinrikson and Meredith (28). The PITC derivative of L-alanine was separated from the β-alanine derivative by HPLC chromatography (28) using a C18 reverse phase column (Beckman Ultrasphere 5μ, 4.6 mm×25 cm, #235329), flow rate 1 ml/min, room temperature. The amino acids were resolved with a complex linear gradient composed of buffer A: 0.05 M ammonium acetate in water and buffer B: 0.1M ammonium acetate in 44% water, 46% acetonitrile, 10% methanol. The gradient established was 0-10% Buffer B in 35 min, then 10-30% Buffer B in 35 min. The PITC derivative of L-alanine elutes at a retention time of 35.0 min whereas the PITC derivative of β-alanine elutes at 26.6 min.
FIG. 8 is the effect of varying concentrations of L-alanine on the production of β-alanine by Clostridiurn subterminale SB4 lysine 2,3-aminomutase. Experimental conditions as given in FIG. 6 except for the concentration of L-alanine. The concentrations of L-alanine used: 0.05 M (2), 0.11 M (3), 0.20 M (4), and 0.38 M (5). The zero reaction time HPLC elution profile for 0.05 M L-alanine (1) is included. The enzyme was reacted with L-alanine for 90 min at 37° C. prior to stopping with perchloric acid and PITC derivatization.
FIG. 9 is the potentiating effect of ethyl and propylamines on the generation of β-alanine from L-alanine by Clostridium subterminale SB4 lysine 2,3-aminomutase. […]
Reductively incubated recombinant-produced purified Clostridium subterminale SB4 lysine-2,3-aminomutase (10 μM-hexamer) was mixed with the following components: 1) EPPS buffer 36 mM pH 8.0, Na salt; 2) S-(5′-adenosyl)-L-methionine 390 μM; 3) sodium hydrosulfite 3.6 mM; 4) L-alanine 380 mM; 5) ethylamine 0.20 M pH 8.0. […] The eluting compounds were detected by spectrophotometry at a wavelength of 254 nm The amino acids were resolved with a complex linear gradient composed of buffer A: 0.05 M ammonium acetate in water and buffer B: 0.1M ammonium acetate in 44% water, 46% acetonitrile, 10% methanol. […]

Data set [3] concerns the target T2, lysine 2,3-aminomutase (Bacillus subtilis, UniProt O34676).
T2 construct: made in house; host or cells: E. coli BL21 (DE3), pET23a(+), NdeI/XhoI; cell extract
Nature of the data set: Lysine 2,3-aminomutase activity of extracts of E. coli BL21 (DE3) cells expressing the B. subtilus gene. It is filed as biochemical, Bacillus subtilus. The following applies: pET23a(+) construct in E. coli BL21 (DE3), induction with 1 mM IPTG. The source says:
In one instance, the gene from Bacillus subtilus (SEQ ID NO:9) was isolated from chromosomal DNA by PCR generating an oligonucleotide insert which after the appropriate restriction digestion was cloned into the NdeI and XhoI site of pET23a(+) expression vector (Novagen, Inc., Madison, Wis.).

Data set [4] deals with T3, Clostridial lysine 2,3-aminomutase (Clostridium subterminale, UniProt Q9XBQ8).
T3 construct: made in house; host or cells: E. coli BL21(DE3) with pET-23a(+) (lysine 2,3-aminomutase gene) and pAlter-Ex2 (dnaY gene)
The following applies: purified enzyme from Clostridium subterminale SB4 cells; Lieder et al., Biochemistry 37:2578 (1998); cited from earlier work.

Turning to `NC(CCS)C(=O)O` (racemic) [DL-homocysteine], the “EPR spectrum of product-related radical compared with L-lysine” value (“EPR spectrum … compared with L-lysine” below) in data set [1] was “less intense but otherwise essentially indistinguishable from that with L-lysine”.
In the case of `C[C@H](N)C(=O)O` [L-alanine], the “EPR spectrum … compared with L-lysine” value in data set [1] is “less intense but otherwise essentially indistinguishable from that with L-lysine”. Further, the “production of β-alanine from L-alanine” value in data set [2] (L-alanine 0.05 M to 0.38 M, ethylamine 0.20 M, 37° C.) is listed as “β-alanine was produced from L-alanine; also recorded: increased β-alanine with increased substrate (L-alanine) concentration”. For the same molecule, the “rate of conversion of L-alanine to β-alanine relative to the rate with 0.2 M ethylamine” value in data set [2] (in the absence of ethylamine or propylamine, estimated) is reported as “about 1/20”.
As for `N[C@@H](CC(=O)O)C(=O)O` [L-aspartate], in data set [1], the “EPR spectrum … compared with L-lysine” value is “less intense but otherwise essentially indistinguishable from that with L-lysine”.
On the same count and under the same terms, the entry for `N[C@@H](CCC(=O)O)C(=O)O` [L-glutamate] is “less intense but otherwise essentially indistinguishable from that with L-lysine”; for `N[C@@H](CCO)C(=O)O` [L-homoserine] it is “less intense but otherwise essentially indistinguishable from that with L-lysine”.
On to `CSCC[C@H](N)C(=O)O` [L-methionine], for which the “EPR spectrum … compared with L-lysine” value in data set [1] is on record as “weak but also consistent with expectations for the analogous radical”.
Consider `CCCN` [Propylamine], for which, in data set [2], the “effect of amine on generation of β-alanine from L-alanine” value is given as “potentiates the reaction less effectively than ethylamine”.
For the molecule `CCN` [ethylamine], the “effect of amine on generation of β-alanine from L-alanine” value in data set [2] is recorded as “potentiated”.

B1: Bacillus subtilus (SEQ ID NO:9): product of the Bacillus subtilus gene cloned in pET23a(+) and expressed in E. coli BL21 (DE3); tested as cell extract (protein, listed as Bacillus subtilis)
chain: MKNKWYKPKRHWKEIELWKDVPEEKWNDWLWQLTHTVRTLDDLKKVINLTEDEEEGVRISTKTIPLNITPYYASLMDPDNPRCPVRMQSVPLSEEMHKTKYDLEDPLHEDEDSPVPGLTHRYPDRVLFLVTNQCSMYCRYCTRRRFSGQIGMGVPKKQLDAAIAYIRETPEIRDCLISGGDGLLINDQILEYILKELRSIPHLEVIRIGTRAPVVFPQRITDHLCEILKKYHPVWLNTHFNTSIEMTEESVEACEKLVNAGVPVGNQAVVLAGINDSVPIMKKLMHDLVKIRVRPYYIYQCDLSEGIGHFRAPVSKGLEIIEGLRGHTSGYAVPTFVVDAPGGGGKIALQPNYVLSQSPDKVILRNFEGVITSYPEPENYIPNQADAYFESVFPETADKKEPIGLSAIFADKEVSFTPENVDRIKRREAYIANPEHETLKDRREKRDQLKEKKFLAQQKKQKETECGGDSS
modifications: CDS (1)..(1413)
notes: product of the Bacillus subtilus gene cloned in pET23a(+) and expressed in E. coli BL21 (DE3); tested as cell extract
As to B1, in data set [3], the “lysine 2,3-aminomutase activity of cell extracts” value is “exhibiting lysine 2,3-aminomutase activity”.

B2: purified lysine 2,3-aminomutase from Clostridium subterminale SB4 cells: naturally produced Clostridial enzyme, SEQ ID NO: 2 (protein)
chain: MINRRYELFKDVSDADWNDWRWQVRNRIETVEELKKYIPLTKEEEEGVAQCVKSLRMAITPYYLSLIDPNDPNDPVRKQAIPTALELNKAAADLEDPLHEDTDSPVPGLTHRYPDRVLLLITDMCSMYCRHCTRRRFAGQSDDSMPMERIDKAIDYIRNTPQVRDVLLSGGDALLVSDETLEYIIAKLREIPHVEIVRIGSRTPVVLPQRITPELVNMLKKYHPVWLNTHFNHPNEITEESTRACQLLADAGVPLGNQSVLLRGVNDCVHVMKELVNKLVKIRVRPYYIYQCDLSLGLEHFRTPVSKGIEIIEGLRGHTSGYCVPTFVVDAPGGGGKTPVMPNYVISQSHDKVILRNFEGVITTYSEPINYTPGCNCDVCTGKKKVHKVGVAGLLNGEGMALEPVGLERNKRHVQE
modifications: Clostridium subterminale
Take B2: the specific activity in data set [4] is 30-40 units/mg.
